Laboratory results published in ChEMBL document CHEMBL1201862, “PubChem BioAssay data set” (2004).
The source made the active and inactive calls.

Legend:
Type in all cases: functional
[1] = target: T1, Short transient receptor potential channel 4 (Mus musculus, UniProt Q9QUQ5); assay: mouse TRPC4 channel activators, dose response, cell-based, HEK293 TRPC4/mu-opioid, Fluo-4 calcium (AID 434937)
T1 sequence (Q9QUQ5 whole entry): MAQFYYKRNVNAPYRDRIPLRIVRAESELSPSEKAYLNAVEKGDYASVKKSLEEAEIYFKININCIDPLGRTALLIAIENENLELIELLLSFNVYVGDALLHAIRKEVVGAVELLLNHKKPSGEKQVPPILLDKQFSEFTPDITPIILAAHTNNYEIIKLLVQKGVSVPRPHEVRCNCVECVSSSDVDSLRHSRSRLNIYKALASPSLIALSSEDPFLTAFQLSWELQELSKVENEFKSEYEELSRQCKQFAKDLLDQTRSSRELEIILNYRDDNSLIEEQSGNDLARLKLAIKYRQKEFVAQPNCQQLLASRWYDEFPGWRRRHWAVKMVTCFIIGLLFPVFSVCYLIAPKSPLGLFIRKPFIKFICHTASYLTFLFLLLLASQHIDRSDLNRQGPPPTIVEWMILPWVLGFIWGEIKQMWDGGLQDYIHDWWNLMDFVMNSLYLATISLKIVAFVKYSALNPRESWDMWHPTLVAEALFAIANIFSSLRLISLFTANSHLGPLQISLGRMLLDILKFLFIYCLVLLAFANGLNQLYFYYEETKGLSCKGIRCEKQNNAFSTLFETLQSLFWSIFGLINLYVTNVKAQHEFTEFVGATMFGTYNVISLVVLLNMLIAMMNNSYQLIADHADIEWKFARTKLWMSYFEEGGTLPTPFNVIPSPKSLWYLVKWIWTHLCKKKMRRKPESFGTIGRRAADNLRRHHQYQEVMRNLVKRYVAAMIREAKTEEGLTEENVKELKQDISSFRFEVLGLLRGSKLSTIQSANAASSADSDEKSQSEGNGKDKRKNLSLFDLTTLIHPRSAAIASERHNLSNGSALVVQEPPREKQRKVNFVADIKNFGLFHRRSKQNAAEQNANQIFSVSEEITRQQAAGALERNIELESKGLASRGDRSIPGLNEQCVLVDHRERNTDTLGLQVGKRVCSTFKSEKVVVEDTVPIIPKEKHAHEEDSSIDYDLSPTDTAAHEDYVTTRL

[2] = target: T2, High affinity choline transporter 1 (Homo sapiens, UniProt Q9GZV3); assay: CHT inhibitors, dose response, cell-based, 5-point CRC, membrane potential dye (AID 504840)
T2 sequence (Q9GZV3 whole entry): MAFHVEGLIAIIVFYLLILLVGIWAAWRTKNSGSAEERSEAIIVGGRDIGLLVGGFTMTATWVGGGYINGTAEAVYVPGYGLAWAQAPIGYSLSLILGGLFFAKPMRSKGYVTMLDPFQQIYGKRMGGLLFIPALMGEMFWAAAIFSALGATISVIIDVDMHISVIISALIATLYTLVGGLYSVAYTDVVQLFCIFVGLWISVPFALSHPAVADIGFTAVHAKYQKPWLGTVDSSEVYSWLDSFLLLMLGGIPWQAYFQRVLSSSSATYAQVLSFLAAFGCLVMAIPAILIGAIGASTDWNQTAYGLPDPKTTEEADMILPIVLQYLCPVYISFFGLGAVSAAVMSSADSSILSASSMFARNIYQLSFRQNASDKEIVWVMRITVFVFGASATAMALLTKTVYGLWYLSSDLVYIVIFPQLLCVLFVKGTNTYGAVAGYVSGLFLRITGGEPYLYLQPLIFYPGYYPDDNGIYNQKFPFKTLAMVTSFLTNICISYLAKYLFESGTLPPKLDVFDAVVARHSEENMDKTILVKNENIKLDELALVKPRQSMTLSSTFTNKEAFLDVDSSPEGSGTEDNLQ

[3] = target: Delta-type opioid receptor (Homo sapiens, UniProt P41143); assay: Counterscreen for agonists of heterodimerization of the mu 1 (OPRM1) and delta 1 (OPRD1) opioid receptors: Luminescence-based cell-based high throughput dose response assay to identify agonists of OPRD1 homodimerization. [Related pubchem assays (depositor defined):AID504326, AID504355, AID504692, AID504904, AID504905]
Chain of Delta-type opioid receptor (P41143 whole entry): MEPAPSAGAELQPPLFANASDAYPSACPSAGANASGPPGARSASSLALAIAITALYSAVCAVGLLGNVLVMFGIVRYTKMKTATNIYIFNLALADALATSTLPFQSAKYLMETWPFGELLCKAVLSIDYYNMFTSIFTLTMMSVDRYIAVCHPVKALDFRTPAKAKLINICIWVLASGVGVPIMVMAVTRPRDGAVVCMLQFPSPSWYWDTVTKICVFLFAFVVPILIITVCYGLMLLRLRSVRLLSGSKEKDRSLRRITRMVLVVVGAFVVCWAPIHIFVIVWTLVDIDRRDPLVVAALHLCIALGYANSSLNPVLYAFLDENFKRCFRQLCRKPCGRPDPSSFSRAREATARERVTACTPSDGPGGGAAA

Mu-type opioid receptor = Mu-type opioid receptor (Homo sapiens, UniProt P35372); assay: Counterscreen for agonists of heterodimerization of the mu 1 (OPRM1) and delta 1 (OPRD1) opioid receptors: Luminescence-based cell-based high throughput dose response assay to identify agonists of OPRM1 homodimerization.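 Also: U2OS cells expressing OPRM1 and beta-arrestin as split beta-galactosidase partners.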
Chain of Mu-type opioid receptor (P35372 whole entry): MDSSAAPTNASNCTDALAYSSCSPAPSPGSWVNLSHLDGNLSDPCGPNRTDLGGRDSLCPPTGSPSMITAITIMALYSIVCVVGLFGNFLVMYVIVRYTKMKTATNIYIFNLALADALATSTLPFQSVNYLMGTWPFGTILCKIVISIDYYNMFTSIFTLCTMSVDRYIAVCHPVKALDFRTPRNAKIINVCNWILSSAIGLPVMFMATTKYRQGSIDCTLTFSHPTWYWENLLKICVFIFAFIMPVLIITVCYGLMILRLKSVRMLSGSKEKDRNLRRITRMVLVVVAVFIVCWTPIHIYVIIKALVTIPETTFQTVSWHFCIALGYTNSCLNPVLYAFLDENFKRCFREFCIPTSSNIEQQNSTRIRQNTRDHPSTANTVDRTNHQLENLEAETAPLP

[4] = target: 5-hydroxytryptamine receptor 5A (Homo sapiens, UniProt P47898); assay: Counterscreen for agonists of OPRM1-OPRD1 heterodimerization: luminescence-based cell-based high throughput dose response assay to identify agonists of 5-hydroxytryptamine (serotonin) 5A receptor (HTR5A). [Related pubchem assays (depositor defined):AID504326, AID504355, AID504692, AID504904, AID504905]
Chain of 5-hydroxytryptamine receptor 5A (P47898 whole entry): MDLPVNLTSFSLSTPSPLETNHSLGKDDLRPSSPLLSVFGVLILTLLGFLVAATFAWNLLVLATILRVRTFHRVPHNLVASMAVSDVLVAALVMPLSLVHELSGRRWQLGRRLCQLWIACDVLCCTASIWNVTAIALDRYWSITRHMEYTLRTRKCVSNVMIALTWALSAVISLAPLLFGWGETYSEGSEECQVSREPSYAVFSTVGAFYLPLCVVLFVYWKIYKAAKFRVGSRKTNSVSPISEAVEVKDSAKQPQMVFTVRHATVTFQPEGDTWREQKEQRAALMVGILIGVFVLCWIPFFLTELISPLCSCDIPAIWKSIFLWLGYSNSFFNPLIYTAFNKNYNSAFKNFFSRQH

[5] = target: T2, High affinity choline transporter 1; assay: CHT inhibitors, dose response, cell-based, 10-point CRC, membrane potential dye (AID 588401);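 also: membrane potential dye fluorescence of choline-evoked depolarization via CHT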

EC50 [1]: 2.99 µM (active) | IC50 [2]: 4.43 µM (active) | EC50 [3]: 14.1 µM (inactive) | EC50 (Mu-type opioid receptor): > 92.5 µM (inactive) | EC50 [4]: > 92.5 µM (inactive) | IC50 [5]: 3.76 µM (active)
SMILES: CCOc1ccc(S(=O)(=O)Nc2cccc(C(=O)NCC(c3ccccc3)N(C)C)c2)cc1 (stereo unspecified)
